Tests used:
Conditions in all cases: incubation time: 72 h
[1] = system: HCC1599; assay: normalised response (% of control), CellTox Green; higher = less cell death (100 = DMSO, 0 = benzethonium chloride kill control)
Procedure, shortened: (§1)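 Values are normalised signals, each belonging to one concentration of the series. Breast cancer cells (20 µl suspension) were seeded into 384-well plates with compound at 5 concentrations in 10-fold steps over a compound-specific 10,000-fold range and incubated 72 h. Readouts were CellTox Green fluorescence (485/520 nm), then CellTiter-Glo luminescence after 10 min at room temperature, with each plate set to 0.1 % DMSO as 100 and a positive kill control as 0.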

[2] = system: MCF-10A; assay: as above
Procedure, shortened: as §1

[3] = system: HCC1143; assay: as above
Procedure, shortened: as §1

[4] = system: CAL-51; assay: as above
Procedure, shortened: as §1

[5] = system: BT-474; assay: as above
Procedure, shortened: as §1

[6] = system: HDQ-P1; assay: as above
Procedure, shortened: as §1

[7] = system: BT-549; assay: as above
Procedure, shortened: as §1

[8] = system: CAL-120; assay: as above
Procedure, shortened: as §1

[9] = system: Hs578T; assay: as above
Procedure, shortened: as §1

[10] = system: MFM-223; assay: as above
Procedure, shortened: as §1

[11] = system: DU-4475; assay: as above
Procedure, shortened: as §1

[12] = system: CAL-85-1; assay: as above
Procedure, shortened: as §1

[13] = system: MDA-MB-453; assay: as above
Procedure, shortened: as §1

[14] = system: CAL-148; assay: as above
Procedure, shortened: as §1

[15] = system: HCC1937; assay: as above
Procedure, shortened: as §1

[16] = system: MDA-MB-231; assay: as above
Procedure, shortened: as §1

[17] = system: MDA-MB-436; assay: as above
Procedure, shortened: as §1

[18] = system: HCC1599; assay: normalised response (% of control), CellTiter-Glo; higher = more viable cells (100 = DMSO, 0 = benzethonium chloride kill control)
Description: (§2)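 DSRT, 72 h incubation, CellTox Green / CellTiter-Glo readout. Signal is normalised to DMSO and benzethonium chloride controls. Value is the normalised response at dose 3.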

[19] = system: MCF-10A; assay: as above
Description: as §2

[20] = system: HCC1143; assay: as above
Description: as §2

[21] = system: CAL-51; assay: as above
Description: as §2

[22] = system: BT-474; assay: as above
Description: as §2

[23] = system: HDQ-P1; assay: as above
Description: as §2

[24] = system: BT-549; assay: as above
Description: as §2

[25] = system: CAL-120; assay: as above
Description: as §2

[26] = system: Hs578T; assay: as above
Description: as §2

[27] = system: MFM-223; assay: as above
Description: as §2

[28] = system: MDA-MB-468; assay: as above
Description: as §2

[29] = system: DU-4475; assay: as above
Description: as §2

[30] = system: CAL-85-1; assay: as above
Description: as §2

[31] = system: SK-BR-3; assay: as above
Description: as §2

[32] = system: MDA-MB-453; assay: as above
Description: as §2

[33] = system: CAL-148; assay: as above
Description: as §2

[34] = system: HCC1937; assay: as above
Description: as §2

[35] = system: MDA-MB-231; assay: as above
Description: as §2

[36] = system: MDA-MB-436; assay: as above
Description: as §2

[37] = system: MDA-MB-468; assay: normalised response (% of control), CellTox Green; higher = less cell death (100 = DMSO, 0 = benzethonium chloride kill control)
Procedure, shortened: as §1

Compound	normalised response [1] [%]	normalised response [2] [%]	normalised response [3] [%]	normalised response [4] [%]	normalised response [5] [%]	normalised response [6] [%]	normalised response [7] [%]	normalised response [8] [%]	normalised response [9] [%]	normalised response [10] [%]	normalised response [11] [%]	normalised response [12] [%]	normalised response [13] [%]	normalised response [14] [%]	normalised response [15] [%]	normalised response [16] [%]	normalised response [17] [%]	normalised response [18] [%]	normalised response [19] [%]	normalised response [20] [%]	normalised response [21] [%]	normalised response [22] [%]	normalised response [23] [%]	normalised response [24] [%]	normalised response [25] [%]	normalised response [26] [%]	normalised response [27] [%]	normalised response [28] [%]	normalised response [29] [%]	normalised response [30] [%]	normalised response [31] [%]	normalised response [32] [%]	normalised response [33] [%]	normalised response [34] [%]	normalised response [35] [%]	normalised response [36] [%]	normalised response [37] [%]
CCN(CC)CCCC(C)Nc1ccnc2cc(Cl)ccc12 (stereo not drawn) [Chloroquine] (1000 nM)	97.9	86.3	109	85.5	79.8	88.4	105	103	99.3	87.7	99.9	110	96.3	104	102	98	85	97	94.4	97.4	78.1	101	103	103	110	96	93.4	83.1	93	102	82.9	81.3	86.9	90.6	98.1	108	–
CCNC(=O)CCC/C=C\C[C@@H]1[C@@H](/C=C/[C@@H](O)CCc2ccccc2)[C@H](O)C[C@@H]1O [Bimatoprost] (55 nM)	97.2	89.2	110	103	98.7	64.3	94.8	98.3	103	101	96.9	83.9	97.6	95	76.7	99.8	–	99.4	90.1	99.7	90.4	97.2	94.2	98.3	99.7	94.9	104	94	94.7	92.4	91.7	99.1	95.8	97.1	100	100	–
CC(C)n1cnc2c(NCCc3ccc(O)cc3)nc(-c3csc4ccccc34)nc21 [StemRegenin 1] (100 nM)	99.5	117	96.3	89.2	80	88.2	100	102	–	98.8	102	113	109	103	98.2	111	118	91	99.5	109	80.8	100	95.2	99.2	112	103	104	93.8	98.4	98.8	103	93.8	103	96.9	112	101	105
CO[C@@]12[C@H](COC(N)=O)C3=C(C(=O)C(C)=C(N)C3=O)N1C[C@@H]1N[C@@H]12 [Mitomycin C] (100 nM)	91.5	81.8	90	73.6	100	–	99.5	101	–	99.2	95.3	93.3	102	60.3	84.9	97	83.8	95.7	92.2	98.2	101	95.2	104	96.5	91.8	98.9	93.8	91.3	99	101	94	94.1	89.6	93.9	93.5	90.8	–
COc1ccc(S(=O)(=O)Nc2cccnc2Nc2ccc(O)cc2)cc1 [ABT-751] (100 nM)	101	57	69.5	98.6	92.9	101	95.4	94.7	–	–	97.4	92.2	98	104	110	102	83.8	109	96.6	99.3	88.9	99.2	96	100	95.2	107	101	97	99.6	96.9	93	84.2	96.6	92.5	101	98.5	81.9
CCn1c(C(=O)N(C2CC2)C2CC2)cc2c3c(ncn3C)c(Nc3cc(C)n(C)n3)nc21 (100 nM)	96	77.7	98.8	101	101	102	106	90.4	–	94.8	101	108	99.3	103	57.1	106	93.9	93	106	101	87.7	100	98.3	110	95.7	110	99.8	97	99.2	100	105	93.2	103	97.4	99.7	106	83.1
CC1(C)CCC(c2ccc(Cl)cc2)=C(CN2CCN(c3ccc(C(=O)NS(=O)(=O)c4ccc(N[C@H](CCN5CCOCC5)CSc5ccccc5)c(S(=O)(=O)C(F)(F)F)c4)cc3)CC2)C1 [Navitoclax] (100 nM)	101	79.6	92.1	94	99.4	–	96.6	92.1	–	103	96.2	93.6	92	100	67.1	73.8	72.7	94.5	91.4	95.6	104	88.1	96.8	96.7	87.2	93.6	96	83	92.9	89.7	88.5	87.7	88	87.9	91.4	91.9	104
COc1cc(Nc2c(C#N)cnc3cc(OCCCN4CCN(C)CC4)c(OC)cc23)c(Cl)cc1Cl [Bosutinib] (100 nM)	101	103	76.2	101	101	101	97.1	99.3	–	101	109	117	100	105	54.8	104	104	93.1	77.4	101	100	104	85.9	103	100	99	99.3	95.4	97.5	98.3	109	103	104	95.5	100	103	148
CC(C)(C)c1nc(-c2cccc(NS(=O)(=O)c3c(F)cccc3F)c2F)c(-c2ccnc(N)n2)s1 [Dabrafenib] (25 nM)	93.3	108	107	110	103	95.9	98.8	105	–	–	99.8	107	105	106	94.8	114	79.1	105	115	118	89.9	99.2	103	104	99.8	104	106	94.7	82.6	96.6	110	96.7	108	102	100	111	119

Reference: the supplement of paper PMC4862054
